Target: T1, human Werner helicase (WRN-BV08, Uniprot Q14191, amino acids 517-1235 with L1074F point mutation) (Homo sapiens, UniProt Q14191, L1074F)
T1 construct: Uniprot Q14191, amino acids 517-1235 with L1074F point mutation; TEV-cleavable 8×His (C, cleaved yes); made in house; host or cells: Sf9 insect cells (baculovirus)
Assay: WRN (BV08) ADP-Glo Assay
Assay type: biochemical
Details: 0.15 nM WRN, 5 μM ATP, 0.1 nM DNA duplex, 15 min preincubation, 60 min at 25° C., pH 7.5, 1% DMSO; read-out: ADP-Glo_hWRN_IC50
Summary of the method: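 Helicase ATPase activity is measured at 25 °C over 60 min using 0.15 nM enzyme, 5 μM ATP and 0.1 nM DNA duplex, final DMSO 1%. ADP production is detected by luminescence, with IC50 derived by curve fitting.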

T1 sequence (Q14191 with tags, fused parts or gaps L1074F limits assumed): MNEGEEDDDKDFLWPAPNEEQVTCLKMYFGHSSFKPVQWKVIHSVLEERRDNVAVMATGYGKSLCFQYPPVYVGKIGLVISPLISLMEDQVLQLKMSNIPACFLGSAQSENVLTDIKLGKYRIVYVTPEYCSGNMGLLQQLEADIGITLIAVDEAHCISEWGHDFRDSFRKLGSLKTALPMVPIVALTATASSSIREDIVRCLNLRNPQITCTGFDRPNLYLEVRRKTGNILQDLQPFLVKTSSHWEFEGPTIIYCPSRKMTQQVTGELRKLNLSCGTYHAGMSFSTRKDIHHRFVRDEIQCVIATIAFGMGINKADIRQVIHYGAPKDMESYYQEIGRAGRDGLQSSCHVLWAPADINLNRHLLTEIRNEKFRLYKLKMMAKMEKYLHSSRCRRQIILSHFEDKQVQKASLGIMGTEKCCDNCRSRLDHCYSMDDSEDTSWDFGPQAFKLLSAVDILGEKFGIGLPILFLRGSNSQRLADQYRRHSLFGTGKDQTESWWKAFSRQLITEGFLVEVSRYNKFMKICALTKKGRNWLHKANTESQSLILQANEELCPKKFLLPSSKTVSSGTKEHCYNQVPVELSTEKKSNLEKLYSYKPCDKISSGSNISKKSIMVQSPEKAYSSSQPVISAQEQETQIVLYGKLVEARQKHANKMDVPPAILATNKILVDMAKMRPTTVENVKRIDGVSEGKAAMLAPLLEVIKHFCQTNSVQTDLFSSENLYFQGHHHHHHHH

SMILES	IC50 [µM]
O=C([C@H]1[C@@H]2CC(F)(F)C[C@@H]21)N(Cc1ccncc1)C1C=CS(=O)(=O)C1 (stereo partly drawn) [I-617, (1R,5S,6R)-N-(1,1-dioxo-2,3-dihydro-1lambda6-thiophen-3-yl)-3,3-difluoro-N-[(pyridin-4-yl)methyl]bicyclo[3.1.0]hexane-6-carboxamide]	> 50
O=C(C1C2CN(CC(F)(F)F)CC21)N(Cc1ccncc1)C1C=CS(=O)(=O)C1 (stereo not drawn) [I-618, N-(1,1-dioxo-2,3-dihydro-1lambda6-thiophen-3-yl)-N-[(pyridin-4-yl)methyl]-3-(2,2,2-trifluoroethyl)-3-azabicyclo[3.1.0]hexane-6-carboxamide]	> 50
O=C(C1C2CCC1C2)N(Cc1ccncc1)C1C=CS(=O)(=O)C1 (stereo not drawn) [I-619, N-(1,1-dioxo-2,3-dihydro-1lambda6-thiophen-3-yl)-N-[(pyridin-4-yl)methyl]bicyclo[2.1.1]hexane-5-carboxamide]	> 50
CC(C(=O)N(Cc1ccncc1)C1C=CS(=O)(=O)C1)n1cc2ccccc2n1 (stereo not drawn) [I-620, N-(1,1-dioxo-2,3-dihydro-1lambda6-thiophen-3-yl)-2-(2H-indazol-2-yl)-N-[(pyridin-4-yl)methyl]propanamide]	> 50
O=C(C1CC(c2ccncc2)=NO1)N(Cc1ccncc1)C1C=CS(=O)(=O)C1 (stereo not drawn) [I-621, N-(1,1-dioxo-2,3-dihydro-1lambda6-thiophen-3-yl)-3-(pyridin-4-yl)-N-[(pyridin-4-yl)methyl]-4,5-dihydro-1,2-oxazole-5-carboxamide]	> 50
O=C(C1CCn2cc(C(F)(F)F)nc2C1)N(Cc1ccncc1)C1C=CS(=O)(=O)C1 (stereo not drawn) [I-622]	> 50
CC(C)(O)c1ccc(CN(C(=O)Cc2ccc(S(F)(F)(F)(F)F)cc2)C2C=CS(=O)(=O)C2)cc1 (stereo not drawn) [I-623, N-(1,1-dioxo-2,3-dihydro-1lambda6-thiophen-3-yl)-N-{[4-(2-hydroxypropan-2-yl)phenyl]methyl}-2-[4-(pentafluoro-lambda6-sulfanyl)phenyl]acetamide]	0.5 to 5
O=C(Cc1ccc(S(F)(F)(F)(F)F)cc1)N(Cc1cc(C2CC2)no1)C1C=CS(=O)(=O)C1 (stereo not drawn) [I-624, N-[(3-cyclopropyl-1,2-oxazol-5-yl)methyl]-N-(1,1-dioxo-2,3-dihydro-1lambda6-thiophen-3-yl)-2-[4-(pentafluoro-lambda6-sulfanyl)phenyl]acetamide]	0.5 to 5
CC(F)(F)c1csc(CN(C(=O)Cc2ccc(S(F)(F)(F)(F)F)cc2)C2C=CS(=O)(=O)C2)n1 (stereo not drawn) [I-625, N-{[4-(1,1-difluoroethyl)-1,3-thiazol-2-yl]methyl}-N-(1,1-dioxo-2,3-dihydro-1lambda6-thiophen-3-yl)-2-[4-(pentafluoro-lambda6-sulfanyl)phenyl]acetamide]	< 0.5
O=C(Cc1ccc(S(F)(F)(F)(F)F)cc1)N(Cc1nc(-c2nn[nH]n2)cs1)C1C=CS(=O)(=O)C1 (stereo not drawn) [I-626, N-(1,1-dioxo-2,3-dihydro-1lambda6-thiophen-3-yl)-2-[4-(pentafluoro-lambda6-sulfanyl)phenyl]-N-{[4-(2H-1,2,3,4-tetrazol-5-yl)-1,3-thiazol-2-yl]methyl}acetamide]	< 0.5
O=C(Cc1cnc(C(F)(F)F)cn1)N(Cc1ccncc1)C1C=CS(=O)(=O)C1 (stereo not drawn) [I-627, N-(1,1-dioxo-2,3-dihydro-1lambda6-thiophen-3-yl)-N-[(pyridin-4-yl)methyl]-2-[5-(trifluoromethyl)pyrazin-2-yl]acetamide]	> 50
CCc1csc(CN(C(=O)Cc2ccc(S(F)(F)(F)(F)F)cc2)C2C=CS(=O)(=O)C2)n1 (stereo not drawn) [I-628, N-(1,1-dioxo-2,3-dihydro-1lambda6-thiophen-3-yl)-N-[(4-ethyl-1,3-thiazol-2-yl)methyl]-2-[4-(pentafluoro-lambda6-sulfanyl)phenyl]acetamide]	< 0.5
O=C(Cc1ccc(S(F)(F)(F)(F)F)cc1)N(CCc1nc(C2CC2)cs1)C1C=CS(=O)(=O)C1 (stereo not drawn) [I-629, N-[2-(4-cyclopropyl-1,3-thiazol-2-yl)ethyl]-N-(1,1-dioxo-2,3-dihydro-1lambda6-thiophen-3-yl)-2-[4-(pentafluoro-lambda6-sulfanyl)phenyl]acetamide]	0.5 to 5
O=C(Cc1ccc2c(c1)CCOC2)N(Cc1ccncc1)C1C=CS(=O)(=O)C1 (stereo not drawn) [I-630, 2-(3,4-dihydro-1H-2-benzopyran-6-yl)-N-(1,1-dioxo-2,3-dihydro-1lambda6-thiophen-3-yl)-N-[(pyridin-4-yl)methyl]acetamide]	> 50
COc1cc(CC(=O)N(Cc2ccncc2)C2C=CS(=O)(=O)C2)cc(OC)c1Br (stereo not drawn) [I-631, 2-(4-bromo-3,5-dimethoxyphenyl)-N-(1,1-dioxo-2,3-dihydro-1lambda6-thiophen-3-yl)-N-[(pyridin-4-yl)methyl]acetamide]	> 50
O=C(Cc1ccc(S(F)(F)(F)(F)F)cc1)N(Cc1ccnc(C2(O)COC2)c1)C1C=CS(=O)(=O)C1 (stereo not drawn) [I-633, N-(1,1-dioxo-2,3-dihydro-1lambda6-thiophen-3-yl)-N-{[2-(3-hydroxyoxetan-3-yl)pyridin-4-yl]methyl}-2-[4-(pentafluoro-lambda6-sulfanyl)phenyl]acetamide]	10 to 50
COc1nc(CN(C(=O)Cc2ccc(S(F)(F)(F)(F)F)cc2)C2C=CS(=O)(=O)C2)cc(N(C)C)n1 (stereo not drawn) [I-634, N-{[6-(dimethylamino)-2-methoxypyrimidin-4-yl]methyl}-N-(1,1-dioxo-2,3-dihydro-1lambda6-thiophen-3-yl)-2-[4-(pentafluoro-lambda6-sulfanyl)phenyl]acetamide]	5 to 10
COc1cc(CN(C(=O)Cc2ccc(S(F)(F)(F)(F)F)cc2)C2C=CS(=O)(=O)C2)nc(N(C)C)n1 (stereo not drawn) [I-635, N-{[2-(dimethylamino)-6-methoxypyrimidin-4-yl]methyl}-N-(1,1-dioxo-2,3-dihydro-1lambda6-thiophen-3-yl)-2-[4-(pentafluoro-lambda6-sulfanyl)phenyl]acetamide]	0.5 to 5
CC(C)(O)c1csc(CN(C(=O)Cc2ccc(S(F)(F)(F)(F)F)cc2)C2C=CS(=O)(=O)C2)n1 (stereo not drawn) [I-637, N-(1,1-dioxo-2,3-dihydro-1lambda6-thiophen-3-yl)-N-{[4-(2-hydroxypropan-2-yl)-1,3-thiazol-2-yl]methyl}-2-[4-(pentafluoro-lambda6-sulfanyl)phenyl]acetamide]	10 to 50
O=C(Cc1ccc(-c2ccc(F)cc2)cc1)N(Cc1ccccc1)C1C=C(CO)S(=O)(=O)C1 (stereo not drawn) [I-640, N-benzyl-2-{4′-fluoro-[1,1′-biphenyl]-4-yl}-N-[5-(hydroxymethyl)-1,1-dioxo-2,3-dihydro-1lambda6-thiophen-3-yl]acetamide]	> 50
O=C(Cc1ccc2c(c1)COCC2)N(Cc1ccncc1)C1C=CS(=O)(=O)C1 (stereo not drawn) [I-642, 2-(3,4-dihydro-1H-2-benzopyran-7-yl)-N-(1,1-dioxo-2,3-dihydro-1lambda6-thiophen-3-yl)-N-[(pyridin-4-yl)methyl]acetamide]	> 50
O=C(Cc1ccc2c(c1)CCCC2)N(Cc1ccncc1)C1C=CS(=O)(=O)C1 (stereo not drawn) [I-643, N-(1,1-dioxo-2,3-dihydro-1lambda6-thiophen-3-yl)-N-[(pyridin-4-yl)methyl]-2-(5,6,7,8-tetrahydronaphthalen-2-yl)acetamide]	10 to 50
O=C(Cc1ccc(S(F)(F)(F)(F)F)cc1)N(Cc1noc(C2CC2)n1)C1C=CS(=O)(=O)C1 (stereo not drawn) [I-644, N-[(5-cyclopropyl-1,2,4-oxadiazol-3-yl)methyl]-N-(1,1-dioxo-2,3-dihydro-1lambda6-thiophen-3-yl)-2-[4-(pentafluoro-lambda6-sulfanyl)phenyl]acetamide]	0.5 to 5
O=C(Cc1ccc(S(F)(F)(F)(F)F)cc1)N(Cc1nnc(C2CC2)s1)C1C=CS(=O)(=O)C1 (stereo not drawn) [I-645, N-[(5-cyclopropyl-1,3,4-thiadiazol-2-yl)methyl]-N-(1,1-dioxo-2,3-dihydro-1lambda6-thiophen-3-yl)-2-[4-(pentafluoro-lambda6-sulfanyl)phenyl]acetamide]	0.5 to 5
O=C(Cc1ccc(S(F)(F)(F)(F)F)cc1)N(Cc1ccnnc1)C1C=CS(=O)(=O)C1 (stereo not drawn) [I-646, N-(1,1-dioxo-2,3-dihydro-1lambda6-thiophen-3-yl)-2-[4-(pentafluoro-lambda6-sulfanyl)phenyl]-N-[(pyridazin-4-yl)methyl]acetamide]	5 to 10
O=C(C1CC(c2ccccc2)O1)N(Cc1ccncc1)C1C=CS(=O)(=O)C1 (stereo not drawn) [I-647, N-(1,1-dioxo-2,3-dihydro-1lambda6-thiophen-3-yl)-4-phenyl-N-[(pyridin-4-yl)methyl]oxetane-2-carboxamide]	> 50
O=C(Cc1ccc(S(F)(F)(F)(F)F)cc1)N(Cc1cnoc1)C1C=CS(=O)(=O)C1 (stereo not drawn) [I-648, N-(1,1-dioxo-2,3-dihydro-1lambda6-thiophen-3-yl)-N-[(1,2-oxazol-4-yl)methyl]-2-[4-(pentafluoro-lambda6-sulfanyl)phenyl]acetamide]	5 to 10
COc1ccc(C(F)(F)C(=O)N(Cc2ccncc2)C2C=CS(=O)(=O)C2)cc1 (stereo not drawn) [I-649, N-(1,1-dioxo-2,3-dihydro-1lambda6-thiophen-3-yl)-2,2-difluoro-2-(4-methoxyphenyl)-N-[(pyridin-4-yl)methyl]acetamide]	> 50
O=C(C1Cc2ccc(Cl)cc21)N(Cc1ccncc1)C1C=CS(=O)(=O)C1 (stereo not drawn) [I-650, 4-chloro-N-(1,1-dioxo-2,3-dihydro-1lambda6-thiophen-3-yl)-N-[(pyridin-4-yl)methyl]bicyclo[4.2.0]octa-1,3,5-triene-7-carboxamide]	> 50
O=C(C1CC(C(F)(F)F)CO1)N(Cc1ccncc1)C1C=CS(=O)(=O)C1 (stereo not drawn) [I-651, N-(1,1-dioxo-2,3-dihydro-1lambda6-thiophen-3-yl)-N-[(pyridin-4-yl)methyl]-4-(trifluoromethyl)oxolane-2-carboxamide]	> 50

Reference: patent publication US20260297070A1, “CYCLIC [COMPOUND LEFT OUT] WRN INHIBITORS” (Nimbus Wadjet, Inc., priority 2023, published 2026)
